Data published in ChEMBL document CHEMBL1201862, “PubChem BioAssay data set” (2004).
Blank lines part the entries; values can stand above or below the compound they belong to. Active and inactive are the calls of the source.

Assays:
A549 = test: A549 cell toxicity, dose response, cytotoxicity control, plate reader, cherry-pick samples (AID 687028); assay type: functional, cell-based; conditions: Homo sapiens
[1] = miR-122 activators in hepatoma reporter cells, dose response, cell-based, Huh7 psiCHECK-miR122, Renilla luciferase, cherry-picked (AID 651956); assay type: functional;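 also: huh7 hepatoma cells stably carrying a psiCHECK-2 miR-122 sensor plasmid; renilla luciferase signal reporting endogenous miR-122 activity after 48 h compound exposure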
Caspase-6 = molecular target: T1, Caspase-6 (Homo sapiens, UniProt P55212); test: human caspase-6 inhibitors, dose response, biochemical, VEID-R110 fluorescence, dry powder retest (AID 743332)
T1 sequence (P55212 whole entry): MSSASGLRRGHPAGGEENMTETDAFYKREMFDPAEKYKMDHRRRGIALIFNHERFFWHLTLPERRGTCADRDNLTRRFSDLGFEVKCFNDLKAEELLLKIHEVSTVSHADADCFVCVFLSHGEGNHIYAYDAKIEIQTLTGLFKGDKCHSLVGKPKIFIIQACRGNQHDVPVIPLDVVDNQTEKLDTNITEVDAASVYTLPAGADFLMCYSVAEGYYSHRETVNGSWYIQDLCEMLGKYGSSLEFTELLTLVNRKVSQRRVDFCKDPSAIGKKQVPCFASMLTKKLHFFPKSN

[2] = HEK293 cell cytotoxicity, dose response, cytotoxicity control, cherry-picks, set 5 (AID 1053117); assay type: functional, cell-based
[3] = HepG2 cell cytotoxicity, dose response, cytotoxicity control, cherry-picks, set 5 (AID 1053118); assay type: functional, cell-based
[4] = HeLa cell cytotoxicity, dose response, cytotoxicity control, 24 h, plate reader, dry powder (AID 686928); assay type: functional, cell-based
[5] = A549 cell cytotoxicity, dose response, cytotoxicity control, cherry-picks, 26 µM top dose (AID 1053119); assay type: functional, cell-based
[6] = molecular target: Potassium channel subfamily K member 3 (Homo sapiens, UniProt O14649); test: TASK1 (KCNK3) potassium channel inhibitors, SAR follow-up, CHO cells, FluxOR thallium flux (AID 652212); assay type: functional
[7] = molecular target: Potassium channel subfamily K member 9 (Homo sapiens, UniProt Q9NPC2); test: TASK3 (KCNK9) channel inhibitors, thallium flux, SAR follow-up, selectivity assay for TASK1 inhibitor project, cell-based, FluxOR thallium flux, concentration-response (AID 652211); assay type: functional;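 also: potency is for inhibitors of the channel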
[8] = LGR2 antagonists, dose response, cell-based, HEK293, CRE-luciferase reporter, cherry pick (AID 743342); assay type: functional

Sequence of Potassium channel subfamily K member 9 (Q9NPC2 whole entry): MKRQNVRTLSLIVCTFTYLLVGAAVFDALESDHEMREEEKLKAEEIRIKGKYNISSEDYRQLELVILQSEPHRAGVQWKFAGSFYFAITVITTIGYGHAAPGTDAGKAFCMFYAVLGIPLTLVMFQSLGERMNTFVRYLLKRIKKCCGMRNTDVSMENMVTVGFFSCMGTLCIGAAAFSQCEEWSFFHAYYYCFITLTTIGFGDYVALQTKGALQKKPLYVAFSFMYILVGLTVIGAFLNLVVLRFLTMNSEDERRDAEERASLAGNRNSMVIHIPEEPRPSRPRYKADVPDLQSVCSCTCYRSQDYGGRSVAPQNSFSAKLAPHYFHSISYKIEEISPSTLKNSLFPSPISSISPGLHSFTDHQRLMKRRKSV
Sequence of Potassium channel subfamily K member 3 (O14649 whole entry): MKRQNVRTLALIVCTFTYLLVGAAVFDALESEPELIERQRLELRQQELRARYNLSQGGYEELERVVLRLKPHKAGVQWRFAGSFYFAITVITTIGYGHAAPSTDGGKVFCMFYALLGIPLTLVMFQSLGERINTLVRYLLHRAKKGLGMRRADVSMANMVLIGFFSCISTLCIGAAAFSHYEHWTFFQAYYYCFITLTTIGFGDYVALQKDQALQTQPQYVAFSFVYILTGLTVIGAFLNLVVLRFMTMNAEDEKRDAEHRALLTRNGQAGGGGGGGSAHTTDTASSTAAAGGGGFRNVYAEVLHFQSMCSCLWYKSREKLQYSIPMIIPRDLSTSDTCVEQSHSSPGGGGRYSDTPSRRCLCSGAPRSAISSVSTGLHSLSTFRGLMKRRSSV

Compound: CCCCCCCCN1C(=O)[C@H](CC(=O)NCCC(C)C)C[C@@]2(C(=O)OCC)CCCC=C12
AC50 (A549): 21 µM (active)

Compound: C[C@H](CO)N1C[C@H](C)[C@H](CN(C)CC2CCCCC2)OCCCC[C@H](C)Oc2ccc(NC(=O)Nc3cccc4ccccc34)cc2C1=O
AC50 [1]: 3.25 µM (active)

AC50 (Caspase-6): 23.9 µM (active)
Compound: O=C(c1ccc(-n2cccc2)cc1)N1CCN(S(=O)(=O)c2ccccc2)CC1

Compound: C[C@@H]1CN([C@@H](C)CO)C(=O)c2cc(-c3ccccc3)cnc2O[C@H]1CN(C)Cc1ccccc1
AC50 [2]: > 52 µM (inactive)
AC50 [3]: > 52 µM (inactive)

Compound: CC(C)(C)COC(=O)CSc1n[nH]c(=O)[nH]c1=O
AC50 [4]: > 76 µM (inactive)

Compound: CN(C)C(=O)c1ccc(-c2ccc3c(c2)[C@H]2[C@H](CCN2C(=O)c2ccc(F)cc2)[C@H](CO)N3C)cc1
AC50 [5]: 43.6 µM (active)

IC50 [6]: 0.134 µM (active)
IC50 [7]: 14.7 µM (active)
Compound: CCOc1ccccc1NC(=O)c1cccc(NC(=O)c2ccc(C)cc2)c1

Compound: C[C@H](CO)N1C[C@H](C)[C@H](CN(C)C(=O)Nc2ccc3c(c2)OCO3)OCCCC[C@H](C)Oc2ccc(NC(=O)NC3CCCCC3)cc2C1=O
AC50 [8]: 9.97 µM (active)
